Laboratory results from PMC6800772 (Molecular microbiology, 2019).
Counter-ions that a name gives are not always drawn.

Target: Pdr5 (Saccharomyces cerevisiae, UniProt P33302, A666G)
Experiment: inhibition of R6G transport in whole cells
Assay type: cell-based

Pdr5, sequence (P33302 whole entry A666G): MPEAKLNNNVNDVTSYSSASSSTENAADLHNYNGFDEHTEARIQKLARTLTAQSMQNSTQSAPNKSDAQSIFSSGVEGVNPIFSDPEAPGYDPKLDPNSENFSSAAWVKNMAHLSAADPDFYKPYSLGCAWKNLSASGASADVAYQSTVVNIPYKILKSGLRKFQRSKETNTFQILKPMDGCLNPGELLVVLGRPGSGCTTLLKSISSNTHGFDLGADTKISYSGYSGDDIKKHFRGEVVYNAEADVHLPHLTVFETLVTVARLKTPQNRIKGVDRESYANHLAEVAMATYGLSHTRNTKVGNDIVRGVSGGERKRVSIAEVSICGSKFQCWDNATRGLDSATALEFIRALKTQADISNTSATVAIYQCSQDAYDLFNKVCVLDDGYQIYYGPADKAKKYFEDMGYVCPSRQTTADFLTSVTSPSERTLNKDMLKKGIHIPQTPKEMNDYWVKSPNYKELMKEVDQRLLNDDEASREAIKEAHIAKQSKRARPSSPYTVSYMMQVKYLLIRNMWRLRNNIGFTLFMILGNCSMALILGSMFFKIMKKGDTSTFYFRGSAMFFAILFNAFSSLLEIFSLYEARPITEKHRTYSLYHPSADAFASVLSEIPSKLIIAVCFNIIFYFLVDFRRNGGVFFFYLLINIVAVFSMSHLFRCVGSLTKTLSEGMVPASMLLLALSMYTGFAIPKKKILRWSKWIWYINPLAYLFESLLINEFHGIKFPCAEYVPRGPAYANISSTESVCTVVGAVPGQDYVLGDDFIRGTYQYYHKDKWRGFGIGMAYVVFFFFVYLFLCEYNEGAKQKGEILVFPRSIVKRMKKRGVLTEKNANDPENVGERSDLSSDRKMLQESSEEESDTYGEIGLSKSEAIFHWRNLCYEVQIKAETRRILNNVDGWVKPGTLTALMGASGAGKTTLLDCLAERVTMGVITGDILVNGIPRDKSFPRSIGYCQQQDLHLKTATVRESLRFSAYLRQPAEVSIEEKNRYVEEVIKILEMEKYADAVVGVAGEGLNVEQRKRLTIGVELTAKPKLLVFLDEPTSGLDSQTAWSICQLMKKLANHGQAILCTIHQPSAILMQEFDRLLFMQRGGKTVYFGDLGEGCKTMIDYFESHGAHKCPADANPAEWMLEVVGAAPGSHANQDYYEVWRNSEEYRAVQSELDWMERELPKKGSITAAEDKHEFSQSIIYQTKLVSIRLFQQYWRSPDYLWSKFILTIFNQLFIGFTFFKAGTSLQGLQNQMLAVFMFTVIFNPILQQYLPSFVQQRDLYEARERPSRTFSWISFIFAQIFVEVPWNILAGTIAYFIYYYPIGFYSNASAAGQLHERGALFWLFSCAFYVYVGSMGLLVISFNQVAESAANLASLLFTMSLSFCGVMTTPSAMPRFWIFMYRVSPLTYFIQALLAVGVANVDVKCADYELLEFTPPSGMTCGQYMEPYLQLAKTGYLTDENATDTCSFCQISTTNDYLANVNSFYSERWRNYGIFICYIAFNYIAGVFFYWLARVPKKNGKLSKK

## C=CCOC(Cn1ccnc1)c1ccc(Cl)cc1Cl (stereo not shown) [imazalil sulfate]
  IC50: ~100 µM
